2 compounds from patent US20060189678A1, “4,5-dihydronaphtho[1,2-b]thiophene derivative” (priority 2003, published 2006) can be followed below.

The subject of test [1] is Male KKAy mice (model for type 2 diabetes). The experiment in a line: Triglyceride content in the liver of KKAy mice (Triglyceride E Test Wako). Type of test: in vivo. The note with it: n=6, subcutaneous 3 mg/5 mL/kg twice a day for 2 weeks, control group 61.7, healthy group 12.5, * P<0.05, ** P<0.01. The protocol:
(§1) Male KKAy mice (11 to 12 weeks old) (each n=6) were used as a model for type 2 diabetes. 11% sulfobutyl ether-β-cyclodextrin was added to the compounds of Examples 1 and 59, and these products were administered subcutaneously in a dose of 3 mg/5 mL/kg, twice a day, continuously for 2 weeks. A group that was given just the vehicle was used as a control group, and male C57BL/6J mice (11 to 12 weeks old) (n=6) that had similarly been given the vehicle were used for a healthy group. The livers were collected, and a Triglyceride E Test Wako (Wako Pure Chemicals) was used to quantify the triglyceride content in the liver. […] Blood was also sampled from the orbital venous plexus, and the glucose level in the separated serum was quantified by enzyme method using a L-type Wako GLU2 (Wako Pure Chemicals).

Test [2] has the same test system. The experiment in a line: Serum glucose level in KKAy mice (enzyme method, L-type Wako GLU2). As to conditions: n=6, subcutaneous 3 mg/5 mL/kg twice a day for 2 weeks, serum from orbital venous plexus blood, control group 532, healthy group 211, ** P<0.01. Type of test: in vivo. The protocol:
as §1

Each structure is given as a SMILES string.

Turning to `Cc1cc(C)c2c(c1)-c1sc(CCO)cc1CC2` [Example 59, 2-(2-hydroxyethyl)-4,5-dihydro-6,8-dimethylnaphtho[1,2-b]thiophene], the “Triglyceride content in liver” value in test [1] is given as 34.8** mg/g liver. Moreover, the Blood glucose level in test [2] is listed as 269** mg/dL.
With `CC(=O)c1cc2c(s1)-c1cc(C)cc(C)c1CC2` [Example 1, 2-acetyl-4,5-dihydro-6,8-dimethylnaphtho[1,2-b]thiophene], the “Triglyceride content in liver” value in test [1] is on record as 47.5* mg/g liver. Further, the Blood glucose level in test [2] came out at 491 mg/dL.
